The results in this text go back to US20230192617A1, “AZABICYCLIC(THIO)AMIDES AS FUNGICIDAL COMPOUNDS” (Bayer CropScience Aktiengesellschaft, priority 2020, published 2023).

Data set [1] in a line: Measurement of Log P values by HPLC on reversed phase columns (EEC directive 79/831 Annex V.A8). Format: physicochemical. To be noted: reversed phase HPLC column, method [a]: LC-UV, acidic range, 0.1% formic acid in water and acetonitrile as eluent. The procedure, abridged:
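Reversed-phase HPLC with UV detection per EEC 79/831 Annex V.A8, linear 10–95% acetonitrile gradient. Aqueous eluent: 0.1% formic acid (acidic), 0.001 M ammonium acetate (neutral), or 0.1% phosphoric acid (acidic); multiple values in one method joined by "+".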

Another data set relates to Alternaria brassicae. The data set can be described thus: In vivo preventive test on Alternaria brassicae (leaf spot on radish or cabbage). To be noted: 500 ppm of active ingredient, preventive spray on radish or cabbage, evaluated 3 to 4 days after inoculation, read-out: efficacy. The gist of the method:
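Young radish or cabbage plants were sprayed with compound dissolved in DMSO/acetone/Tween 80 and diluted in water; controls received solvent only. Inoculation by spraying A. brassicae spore suspension 24 h later, then 3–4 days at 20 °C and 100% relative humidity.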

A further data set relates to Sphaerotheca fuliginea. As to the kind of experiment: In vivo preventive test on Sphaerotheca fuliginea (powdery mildew on cucurbits). The following applies: Podosphaera fuliginea, 192 h; 500 ppm of active ingredient; preventive spray on gherkin; evaluated 8 days after inoculation; read-out: efficacy. The procedure, abridged: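 Young gherkin plants were sprayed with compound in DMSO/acetone/Tween 80 diluted in water. They were inoculated 24 h later with a spore suspension of Sphaerotheca fuliginea. Plants were then kept for 8 days at 20 °C and 70–80% relative humidity.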

The test system of the next data set is Alternaria alternata. As to the kind of experiment: Alternaria alternata in vitro cell test. In kind it is cell-based. To be noted: 120 h, 20 ppm of active ingredient, liquid culture, 5 days incubation, spectrometric measurement of mycelium growth, read-out: efficacy (inhibition of fungal growth). The gist of the method:
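Liquid culture assay in which A. alternata spores in medium received DMSO-solubilized compound (final DMSO ≤1%). After 5 days, mycelium growth was measured spectrometrically. Inhibition was calculated against fungicide-free control wells.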

For data set [2], the system named is Colletotrichum lindemuthianum. As to the kind of experiment: B-8. Colletotrichum lindemuthianum in vitro cell test. To be noted: 144 h, 20 ppm of active ingredient, 6 days incubation, liquid culture, absorbance, read-out: efficacy (inhibition of fungal growth). Format: cell-based. The procedure, abridged: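 Spore suspension of C. lindemuthianum in liquid medium exposed to DMSO-solubilized compounds (final DMSO ≤1%) for 6 days. Mycelial growth read by absorbance, with inhibition calculated relative to compound-free control wells.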

The next data set relates to Septoria tritici. As to the kind of experiment: B-9. Septoria tritici in vitro cell test. Format: cell-based. The following applies: Zymoseptoria tritici, 168 h; 20 ppm of active ingredient; 7 days incubation; liquid culture, absorbance; read-out: efficacy (inhibition of fungal growth). The procedure, abridged: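 Compounds from DMSO stocks (final DMSO ≤1%) were added to liquid medium containing S. tritici spores to test inhibition of germination and mycelial growth. After 7 days, mycelium growth was read spectrometrically and inhibition derived from absorbance versus fungicide-free control wells.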

The test system of the next data set is Pyrenophora teres. As to the kind of experiment: B-10. Pyrenophora teres in vitro cell test. Format: cell-based. The following applies: 144 h, 20 ppm of active ingredient, 6 days incubation, liquid culture, absorbance, read-out: efficacy (inhibition of fungal growth). The gist of the method:
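Liquid-culture assay on a P. teres spore suspension with compounds added to the medium from DMSO solutions, final DMSO ≤1%. Mycelium growth read spectrometrically after 6 days. Inhibition calculated from absorbance against untreated control wells.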

For a further data set, the system named is Botrytis cinerea. As to the kind of experiment: B-11. Botrytis cinerea in vitro cell test. Format: cell-based. To be noted: 144 h, 20 ppm of active ingredient, 6 days incubation, liquid culture, absorbance, read-out: efficacy (inhibition of fungal growth). The procedure, abridged: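 B. cinerea spores were grown in liquid culture with compound (DMSO ≤1% final). Mycelium growth was measured spectrometrically after 6 days, with inhibition taken as absorbance relative to untreated control wells.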

As a reminder, the chromatographic logP is a lipophilicity value derived from retention on a column. A lower chromatographic logP goes with lower lipophilicity. As a reminder, the inhibition is the relative decrease from the control value, in per cent.

Take `Cc1ccc(C(F)CNC(=O)c2c(Oc3cccc(C(F)(F)F)c3)nnc3c2COCC3)c(C)c1` (stereo not drawn) [I-123]: in data set [1], the chromatographic logP was 3.61. Besides, the pest or weed control at 500 ppm in the data set with Alternaria brassicae and in the data set with Sphaerotheca fuliginea was 90 to 100% throughout. For the same compound, the inhibition at 20 ppm (in the data set on Alternaria alternata; in data set [2]; with Septoria tritici; in the data set with Pyrenophora teres; with Botrytis cinerea) was 90 to 100% throughout.
`Cc1ccc(C(F)(F)CNC(=O)c2c(Oc3cccc(C(F)(F)F)c3)nnc3c2COCC3)c(Cl)c1` [I-124] registered a chromatographic logP in data set [1] of 3.7. In addition, the pest or weed control at 500 ppm in the data set with Alternaria brassicae and with Sphaerotheca fuliginea was 90 to 100% each time. Further, the inhibition at 20 ppm (with Alternaria alternata; in data set [2]; in the data set with Septoria tritici; with Pyrenophora teres; with Botrytis cinerea) was 90 to 100% each time.
`O=C(NCC(F)c1ccc(Cl)cc1Cl)c1c(Oc2cccc(C(F)(F)F)c2)nnc2c1COCC2` (stereo not drawn) [I-126]: in data set [1], the chromatographic logP came to 3.75. For the same compound, the pest or weed control at 500 ppm with Alternaria brassicae and in the data set with Sphaerotheca fuliginea was 90 to 100% throughout. The inhibition at 20 ppm (in the data set with Alternaria alternata; in data set [2]; with Septoria tritici; in the data set on Pyrenophora teres; in the data set on Botrytis cinerea) was 90 to 100% in each case.
Consider `Cc1cc(Br)ccc1C(F)(F)CNC(=O)c1c(Oc2cccc(C(F)(F)F)c2)nnc2c1COCC2` [I-127], for which, in data set [1], the chromatographic logP worked out at 3.94. Also, the pest or weed control at 500 ppm in the data set with Alternaria brassicae and in the data set with Sphaerotheca fuliginea was 90 to 100% in each case. The inhibition at 20 ppm (in the data set on Alternaria alternata; in data set [2]; with Septoria tritici; in the data set on Pyrenophora teres; with Botrytis cinerea) was 90 to 100% in each case.
On to `Cc1ccc(C(F)(F)CNC(=O)c2c(Oc3cccc(Br)c3F)nnc3c2CCCC3)c(C)c1` [I-128], for which the chromatographic logP in data set [1] turned out to be 4.05. In addition, the pest or weed control at 500 ppm in the data set on Alternaria brassicae and with Sphaerotheca fuliginea was 90 to 100% throughout. Moreover, the inhibition at 20 ppm (in the data set with Alternaria alternata; in data set [2]; with Septoria tritici; with Pyrenophora teres; in the data set with Botrytis cinerea) was 90 to 100% each time.
For `Cc1ccc(C(F)(F)CNC(=O)c2c(Oc3cccc(C(F)F)c3)nnc3c2CCCC3)c(C)c1` [I-129], the chromatographic logP in data set [1] came to 3.68. In addition, the pest or weed control at 500 ppm in the data set with Alternaria brassicae and with Sphaerotheca fuliginea was 90 to 100% throughout. Further, the inhibition at 20 ppm (with Alternaria alternata; in data set [2]; in the data set on Septoria tritici; in the data set with Pyrenophora teres; in the data set on Botrytis cinerea) was 90 to 100% throughout.
Take `Cc1ccc(C(F)(F)CNC(=O)c2c(Oc3cccc(Cl)c3F)nnc3c2CCCC3)c(C)c1` [I-130]: the chromatographic logP in data set [1] amounted to 4. For the same compound, the pest or weed control at 500 ppm in the data set on Alternaria brassicae and with Sphaerotheca fuliginea was 90 to 100% throughout. For the same compound, the inhibition at 20 ppm (with Alternaria alternata; in data set [2]; with Septoria tritici; in the data set on Pyrenophora teres; in the data set on Botrytis cinerea) was 90 to 100% in each case.
In the case of `Cc1ccc(C(F)(F)CNC(=O)c2c(Oc3cccc(C4CC4)c3F)nnc3c2CCCC3)c(C)c1` [I-131], in data set [1], the chromatographic logP was 4.23. For the same compound, the pest or weed control at 500 ppm in the data set on Alternaria brassicae and in the data set on Sphaerotheca fuliginea was 90 to 100% each time. The inhibition at 20 ppm (in the data set with Alternaria alternata; in data set [2]; with Septoria tritici; in the data set with Pyrenophora teres; in the data set with Botrytis cinerea) was 90 to 100% in each case.
`Cc1ccc(C(F)(F)CNC(=O)c2c(Oc3cccc(C(F)(F)F)c3)nnc3c2CCC3)c(C)c1` [I-132] returned a chromatographic logP in data set [1] of 4. Moreover, the pest or weed control at 500 ppm in the data set on Alternaria brassicae and with Sphaerotheca fuliginea was 90 to 100% in each case. The inhibition at 20 ppm (in the data set on Alternaria alternata; in data set [2]; in the data set with Septoria tritici; with Pyrenophora teres; in the data set with Botrytis cinerea) was 90 to 100% in each case.
As for `Cc1ccc(C(F)(F)CNC(=O)c2c(Oc3cccc(Cl)c3F)nnc3c2CCC3)c(C)c1` [I-133], the chromatographic logP in data set [1] turned out to be 3.89. The pest or weed control at 500 ppm in the data set with Alternaria brassicae and in the data set on Sphaerotheca fuliginea was 90 to 100% each time. Further, the inhibition at 20 ppm (in the data set on Alternaria alternata; in data set [2]; in the data set with Septoria tritici; with Pyrenophora teres; in the data set on Botrytis cinerea) was 90 to 100% throughout.
In the case of `Cc1ccc(C(F)(F)CNC(=O)c2c(Oc3cccc(C4CC4)c3F)nnc3c2CCC3)c(C)c1` [I-134], the chromatographic logP in data set [1] stood at 4.17. In addition, the pest or weed control at 500 ppm in the data set on Alternaria brassicae and in the data set with Sphaerotheca fuliginea was 90 to 100% throughout. Moreover, the inhibition at 20 ppm (in the data set with Alternaria alternata; in data set [2]; in the data set with Septoria tritici; with Pyrenophora teres; in the data set on Botrytis cinerea) was 90 to 100% each time.
In the case of `Cc1ccc(C(F)CNC(=O)c2c(Oc3cccc(Cl)c3F)nnc3c2CCCC3)c(C)c1` (stereo not drawn) [I-136], the chromatographic logP in data set [1] amounted to 3.78. The pest or weed control at 500 ppm in the data set on Alternaria brassicae and with Sphaerotheca fuliginea was 90 to 100% in each case. Besides, the inhibition at 20 ppm (with Alternaria alternata; in data set [2]; with Septoria tritici; in the data set on Pyrenophora teres; in the data set with Botrytis cinerea) was 90 to 100% each time.
With `Cc1ccc(C(F)CNC(=O)c2c(Oc3cccc(C4CC4)c3F)nnc3c2CCCC3)c(C)c1` (stereo not drawn) [I-137], in data set [1], the chromatographic logP is 4. The pest or weed control at 500 ppm in the data set on Alternaria brassicae and with Sphaerotheca fuliginea was 90 to 100% throughout. The inhibition at 20 ppm in the data set on Alternaria alternata was in the range of 90 to 100%; in data set [2], 90 to 100%; with Septoria tritici, 70 to 79%; in the data set on Pyrenophora teres, 90 to 100%; in the data set on Botrytis cinerea, 90 to 100%.
For the compound `Cc1ccc(C(F)(F)CNC(=O)c2c(Oc3cccc(Cl)c3)nnc3c2CCCC3)c(Cl)c1` [I-139], the chromatographic logP in data set [1] is 3.89. Moreover, the pest or weed control at 500 ppm with Alternaria brassicae and with Sphaerotheca fuliginea was 90 to 100% each time. The inhibition at 20 ppm (with Alternaria alternata; in data set [2]; with Septoria tritici; with Pyrenophora teres; with Botrytis cinerea) was 90 to 100% in each case.
As for `Cc1ccc(C(F)(F)CNC(=O)c2c(Oc3cccc(Cl)c3F)nnc3c2CCCC3)c(Cl)c1` [I-140, 3-(3-chloro-2-fluoro-phenoxy)-N-[2-(2-chloro-4-methyl-phenyl)-2,2-difluoro-ethyl]-5,6,7,8-tetrahydrocinnoline-4-carboxamide], the chromatographic logP in data set [1] worked out at 3.94. Besides, the pest or weed control at 500 ppm in the data set with Alternaria brassicae and in the data set with Sphaerotheca fuliginea was 90 to 100% in each case. Also, the inhibition at 20 ppm (in the data set on Alternaria alternata; in data set [2]; in the data set with Septoria tritici; in the data set on Pyrenophora teres; with Botrytis cinerea) was 90 to 100% each time.
